PMC5908784, “Extracellular loops 2 and 3 of the calcitonin receptor selectively modify agonist binding and efficacy” (Biochemical Pharmacology, 2018)
Where a SMILES comes first, the peptide text is derived from it. Bridges are numbered along the chain shown (N, C = ends).

Biological target: T1, hCTR N288A (Homo sapiens, UniProt P30988, N288A)
T1 construct: expressed in transfected cells
T1 sequence (P30988 25-474 N288A): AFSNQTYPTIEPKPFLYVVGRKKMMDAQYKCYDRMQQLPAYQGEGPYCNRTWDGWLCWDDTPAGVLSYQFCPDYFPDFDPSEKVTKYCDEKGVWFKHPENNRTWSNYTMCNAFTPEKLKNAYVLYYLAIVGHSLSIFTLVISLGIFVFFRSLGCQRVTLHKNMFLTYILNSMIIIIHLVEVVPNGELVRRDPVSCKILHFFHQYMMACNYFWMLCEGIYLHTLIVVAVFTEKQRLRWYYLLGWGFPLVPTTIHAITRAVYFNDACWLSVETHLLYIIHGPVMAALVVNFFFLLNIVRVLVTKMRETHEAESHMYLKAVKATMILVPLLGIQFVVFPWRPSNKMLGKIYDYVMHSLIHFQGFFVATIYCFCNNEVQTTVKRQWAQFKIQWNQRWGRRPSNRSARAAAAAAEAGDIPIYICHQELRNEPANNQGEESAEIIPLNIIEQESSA
Assay: Heterologous whole cell competition binding
Conditions: heterologous competition of 125I-sCT(8-32), whole cells, mean ± S.E.M., SEM
Method in brief: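 Intact cells carrying the mutant calcitonin receptor are co-incubated overnight with labelled tracer and unlabelled competitor. Non-bound ligand is then washed away and retained radioactivity measured by gamma counting; competition data are converted to pKi using Cheng-Prusoff.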

Ki: 9.33 nM
Structure (SMILES): CSCC[C@H](NC(=O)CNC(=O)[C@H](CO)NC(=O)[C@H](Cc1ccccc1)NC(=O)[C@H](CCCNC(=N)N)NC(=O)[C@H](Cc1c[nH]cn1)NC(=O)[C@H](Cc1ccccc1)NC(=O)[C@H](CC(N)=O)NC(=O)[C@H](CC(N)=O)NC(=O)[C@H](CC(C)C)NC(=O)[C@H](CC(N)=O)NC(=O)[C@H](CCCNC(=N)N)NC(=O)[C@H](Cc1c[nH]c2ccccc12)NC(=O)[C@H](Cc1ccc(O)cc1)NC(=O)[C@H](C)NC(=O)[C@H](CO)NC(=O)[C@H](CC(C)C)NC(=O)[C@@H](NC(=O)[C@@H]1CSSC[C@H](N)C(=O)N[C@@H](CO)C(=O)N[C@@H](CC(N)=O)C(=O)N[C@@H](CC(C)C)C(=O)N[C@@H](CO)C(=O)N[C@@H]([C@@H](C)O)C(=O)N1)C(C)C)C(=O)NCC(=O)N[C@@H](Cc1ccccc1)C(=O)NCC(=O)N1CCC[C@H]1C(=O)N[C@@H](CCC(=O)O)C(=O)N[C@H](C(=O)N1CCC[C@H]1C(N)=O)[C@@H](C)O [pCT] (H-CSNLSTCVLSAYWRNLNNFHRFSGMGFGPETP-NH2; disulfide 1-7)
